Reference: patent US6780616B1, “Antibiotic caprazamycins and process for producing the same” (Zaidan Hojin Biseibutsu Kagaku Kenkyu Kai Corp., priority 1999, dated 2004)
In brackets after ≈: the same amount, converted by molar mass.

What was measured:
[1] = tested on: Mycobacterium avium kirchberg NIHJ-1605; test: Antibacterial spectrum, serial dilution in Middlebrook 7H9 liquid medium; assay type: cell-based; set-up: unit not given here
Procedure: (§1) The antibacterial spectrum of each of caprazamycins A, B, C, E and F against Mycobacterium tuberculosis, and against atypical acid-fast bacteria, Mycobacterium avium kirchberg and Mycobacterium intracellulare, were measured in a Middlebrook 7H9 liquid medium by a serial dilution method. At the same time, antibacterial spectra of rifampicin (RMP) and isonicotinic acid hydrazide (INH) (as comparative drug) against the above-mentioned acid-fast bacteria were measured by the same serial dilution method.

[2] = tested on: Mycobacterium tuberculosis H37Rv NIHJ-1633; test: as above; assay type: cell-based; set-up: unit not given here
Procedure: as §1

[3] = tested on: Mycobacterium intracellulare E-1 NIHJ-1618; test: as above; assay type: cell-based; set-up: unit not given here
Procedure: as §1

[4] = tested on: Mycobacterium smegmatis ATCC607 PM-R (paromomycin-resistant); test: Antibacterial spectrum, serial dilution on 1% glycerin-supplemented nutrient agar; assay type: cell-based; details: Mycolicibacterium smegmatis, ATCC607, read-out: Minimum growth inhibitory concentration
Procedure: (§2) The antibacterial spectrum of caprazamycin A against a variety of microorganisms were measured on a 1% glycerin-supplemented nutrient agar medium by a serial dilution method according to the standard method as provided by Japanese Society of Chemotherapy.
(§3) The antibacterial spectrum of caprazamycin B against a variety of microorganisms were measured on a 1% glycerin-supplemented nutrient agar medium by a serial dilution method according to the standard method as provided by Japanese Society of Chemotherapy.
(§4) The antibacterial spectrum of caprazamycin C against a variety of microorganisms were measured on a 1% glycerin-supplemented nutrient agar medium by a serial dilution method according to the standard method as provided by Japanese Society of Chemotherapy.
(§5) The antibacterial spectrum of caprazamycin E against a variety of microorganisms were measured on a 1% glycerin-supplemented nutrient agar medium by a serial dilution method according to the standard method as provided by Japanese Society of Chemotherapy.
(§6) The antibacterial spectrum of caprazamycin F against a variety of microorganisms were measured on a 1% glycerin-supplemented nutrient agar medium by a serial dilution method according to the standard method as provided by Japanese Society of Chemotherapy.

[5] = tested on: Mycobacterium smegmatis ATCC607; test: as above; assay type: cell-based; details: Mycolicibacterium smegmatis, read-out: Minimum growth inhibitory concentration
Procedure: as §2, §3, §4, §5, §6

[6] = tested on: Mycobacterium smegmatis ATCC607 RFP-R (rifampicin-resistant); test: as above; assay type: cell-based; details: Mycolicibacterium smegmatis, ATCC607, read-out: Minimum growth inhibitory concentration
Procedure: as §2, §3, §4, §5, §6

[7] = tested on: Mycobacterium vaccae ATCC15483; test: as above; assay type: cell-based; details: Mycolicibacterium vaccae, read-out: Minimum growth inhibitory concentration
Procedure: as §2, §3, §4, §5, §6

[8] = tested on: Mycobacterium smegmatis ATCC607 SM-R (streptomycin-resistant); test: as above; assay type: cell-based; details: Mycolicibacterium smegmatis, ATCC607, read-out: Minimum growth inhibitory concentration
Procedure: as §2, §3, §4, §5, §6

[9] = tested on: Mycobacterium smegmatis ATCC607 KM-R (kanamycin-resistant); test: as above; assay type: cell-based; details: Mycolicibacterium smegmatis, ATCC607, read-out: Minimum growth inhibitory concentration
Procedure: as §2, §3, §4, §5, §6

[10] = tested on: Mycobacterium smegmatis ATCC607 ST-R (streptothricin-resistant); test: as above; assay type: cell-based; details: Mycolicibacterium smegmatis, ATCC607, read-out: Minimum growth inhibitory concentration
Procedure: as §2, §3, §4, §5, §6

Mycobacterium fortuitum = test: as above; assay type: cell-based; details: Mycolicibacterium fortuitum, read-out: Minimum growth inhibitory concentration
Procedure: as §2, §3, §4, §5, §6

[11] = tested on: Mycobacterium smegmatis ATCC607 CPM-R (capreomycin-resistant); test: as above; assay type: cell-based; details: Mycolicibacterium smegmatis, ATCC607, read-out: Minimum growth inhibitory concentration
Procedure: as §2, §3, §4, §5, §6

Mycobacterium phlei = test: as above; assay type: cell-based; details: Mycolicibacterium phlei, read-out: Minimum growth inhibitory concentration
Procedure: as §2, §3, §4, §5, §6

[12] = tested on: Mycobacterium smegmatis ATCC607 VM-R (viomycin-resistant); test: as above; assay type: cell-based; details: Mycolicibacterium smegmatis, ATCC607, read-out: Minimum growth inhibitory concentration
Procedure: as §2, §3, §4, §5, §6

Bacillus anthracis = test: microbe, parasite or virus in culture; assay type: cell-based; details: read-out: Minimum growth inhibitory concentration
[13] = tested on: Staphylococcus aureus No.17 (methicillin-resistant); test: Antibacterial spectrum, serial dilution on Müller-Hinton agar; assay type: cell-based; details: read-out: Minimum growth inhibitory concentration
Escherichia coli NIHJ = test: as above; assay type: cell-based; details: read-out: Minimum growth inhibitory concentration
[14] = tested on: Bacillus subtilis NRRL B-558; test: as above; assay type: cell-based; details: NRRLB558, read-out: Minimum growth inhibitory concentration
[15] = tested on: Bacillus subtilis PCI1219; test: as above; assay type: cell-based; details: read-out: Minimum growth inhibitory concentration
[16] = tested on: mice (ICR type, 4 weeks-aged, male); test: Toxicity in mice after intravenous administration; assay type: in vivo; details: intravenously, 75 mg/kg
From the text: The dose of a caprazamycin of the general formula (I) or a salt thereof as an active ingredient in the composition of this invention may depend upon the nature of bacterial infections to be treated, a purpose of the therapeutic treatment, degree of the patient's conditions and so on. However, an optimal dose of a caprazamycin can be decided by experts through suitable preliminary tests.

[17] = tested on: Staphylococcus aureus MS9610 (multiple drug-resistant); test: Antibacterial spectrum, serial dilution on Müller-Hinton agar; assay type: cell-based; details: read-out: Minimum growth inhibitory concentration
[18] = tested on: Staphylococcus aureus MS16526 (methicillin-resistant); test: as above; assay type: cell-based; details: read-out: Minimum growth inhibitory concentration
[19] = tested on: Staphylococcus aureus TY-04282 (methicillin-resistant); test: as above; assay type: cell-based; details: read-out: Minimum growth inhibitory concentration
[20] = tested on: Staphylococcus aureus No.5 (methicillin-resistant); test: as above; assay type: cell-based; details: read-out: Minimum growth inhibitory concentration
[21] = tested on: Corynebacterium bovis 1810; test: as above; assay type: cell-based; details: read-out: Minimum growth inhibitory concentration
Procedure: (§7) The antibacterial spectrum of caprazamycin B against a variety of microorganisms other than the microorganisms as specified in Table 2 were measured on Müller-Hinton agar medium by a serial dilution method according to the standard method as provided by Japanese Society of Chemotherapy.

[22] = tested on: Staphylococcus aureus FDA209P; test: as above; assay type: cell-based; details: read-out: Minimum growth inhibitory concentration
Procedure: as §7

[23] = tested on: Bacillus cereus ATCC10702; test: as above; assay type: cell-based; details: read-out: Minimum growth inhibitory concentration
Procedure: as §7

[24] = tested on: Staphylococcus aureus Smith; test: as above; assay type: cell-based; details: read-out: Minimum growth inhibitory concentration
Procedure: as §7

[25] = tested on: Micrococcus luteus PCI1001; test: as above; assay type: cell-based; details: read-out: Minimum growth inhibitory concentration
Procedure: as §7

Micrococcus luteus FDA16 = test: as above; assay type: cell-based; details: read-out: Minimum growth inhibitory concentration
Procedure: as §7

Row | Structure (SMILES) | Minimum Inhibitory Concentration of Compound tested against Test Bacteria [1] | Minimum Inhibitory Concentration of Compound tested against Test Bacteria [2] | Minimum Inhibitory Concentration of Compound tested against Test Bacteria [3] | MIC [4] | MIC [5] | MIC [6] | MIC [7] | MIC [8] | MIC [9] | MIC [10] | MIC (Mycobacterium fortuitum) | MIC [11] | MIC (Mycobacterium phlei) | MIC [12] | further results
1 | CCCCCCCCCCCC(CC(=O)OC1CN(C)C(C(OC2OC(CN)C(O)C2O)C2OC(n3ccc(=O)[nH]c3=O)C(O)C2O)C(=O)N(C)C1C(=O)O)OC(=O)CC(C)CC(=O)OC1OC(C)C(OC)C(OC)C1OC (stereo not shown) [Caprazamycin E, caprazamycin E] | <0.025 | 0.78 | 0.78 | 1.56 µg/mL (≈ 1.4 µM) | 1.56 µg/mL (≈ 1.4 µM) | 0.78 µg/mL (≈ 0.698 µM) | 0.39 µg/mL (≈ 0.349 µM) | 1.56 µg/mL (≈ 1.4 µM) | 0.78 µg/mL (≈ 0.698 µM) | 0.78 µg/mL (≈ 0.698 µM) | 12.5 µg/mL (≈ 11.2 µM) | 0.39 µg/mL (≈ 0.349 µM) | 1.56 µg/mL (≈ 1.4 µM) | 0.39 µg/mL (≈ 0.349 µM) | 
2 | CCCCCCCCCCCCCC(CC(=O)OC1CN(C)C(C(OC2OC(CN)C(O)C2O)C2OC(n3ccc(=O)[nH]c3=O)C(O)C2O)C(=O)N(C)C1C(=O)O)OC(=O)CC(C)CC(=O)OC1OC(C)C(OC)C(OC)C1OC (stereo not shown) [Caprazamycin A, caprazamycin A] | <0.025 | 1.56 | 0.78 | 1.56 µg/mL (≈ 1.36 µM) | 1.56 µg/mL (≈ 1.36 µM) | 0.78 µg/mL (≈ 0.68 µM) | 0.2 µg/mL (≈ 0.174 µM) | 1.56 µg/mL (≈ 1.36 µM) | 0.78 µg/mL (≈ 0.68 µM) | 0.78 µg/mL (≈ 0.68 µM) | 6.25 µg/mL (≈ 5.45 µM) | 0.78 µg/mL (≈ 0.68 µM) | 1.56 µg/mL (≈ 1.36 µM) | 0.78 µg/mL (≈ 0.68 µM) | 
3 | CCCCCCCCCCCCC(CC(=O)OC1CN(C)C(C(OC2OC(CN)C(O)C2O)C2OC(n3ccc(=O)[nH]c3=O)C(O)C2O)C(=O)N(C)C1C(=O)O)OC(=O)CC(C)CC(=O)OC1OC(C)C(OC)C(OC)C1OC (stereo not shown) [Caprazamycin C, caprazamycin C] | <0.025 | 0.78 | 0.78 | 1.56 µg/mL (≈ 1.38 µM) | 1.56 µg/mL (≈ 1.38 µM) | 1.56 µg/mL (≈ 1.38 µM) | 0.39 µg/mL (≈ 0.344 µM) | 1.56 µg/mL (≈ 1.38 µM) | 0.78 µg/mL (≈ 0.689 µM) | 1.56 µg/mL (≈ 1.38 µM) | 12.5 µg/mL (≈ 11 µM) | 1.56 µg/mL (≈ 1.38 µM) | 1.56 µg/mL (≈ 1.38 µM) | 1.56 µg/mL (≈ 1.38 µM) | 
4 | COC1C(C)OC(OC(=O)CC(C)CC(=O)OC(CCCCCCCCC(C)C)CC(=O)OC2CN(C)C(C(OC3OC(CN)C(O)C3O)C3OC(n4ccc(=O)[nH]c4=O)C(O)C3O)C(=O)N(C)C2C(=O)O)C(OC)C1OC (stereo not shown) [Caprazamycin F, caprazamycin F] | 0.1 |  | 1.56 | 0.78 µg/mL (≈ 0.698 µM) | 1.56 µg/mL (≈ 1.4 µM) | 0.78 µg/mL (≈ 0.698 µM) | 0.78 µg/mL (≈ 0.698 µM) | 1.56 µg/mL (≈ 1.4 µM) | 0.78 µg/mL (≈ 0.698 µM) | 0.78 µg/mL (≈ 0.698 µM) | 12.5 µg/mL (≈ 11.2 µM) | 0.78 µg/mL (≈ 0.698 µM) | 1.56 µg/mL (≈ 1.4 µM) | 1.56 µg/mL (≈ 1.4 µM) | 
5 | COC1C(C)OC(OC(=O)CC(C)CC(=O)OC(CCCCCCCCCCC(C)C)CC(=O)OC2CN(C)C(C(OC3OC(CN)C(O)C3O)C3OC(n4ccc(=O)[nH]c4=O)C(O)C3O)C(=O)N(C)C2C(=O)O)C(OC)C1OC (stereo not shown) [Caprazamycin B, caprazamycin B] | <0.025 | 1.56 | 0.78 | 1.56 µg/mL (≈ 1.36 µM) | 3.13 µg/mL (≈ 2.73 µM) | 3.13 µg/mL (≈ 2.73 µM) | 0.39 µg/mL (≈ 0.34 µM) | 3.13 µg/mL (≈ 2.73 µM) | 1.56 µg/mL (≈ 1.36 µM) | 1.56 µg/mL (≈ 1.36 µM) | 50 µg/mL (≈ 43.6 µM) | 1.56 µg/mL (≈ 1.36 µM) | 3.13 µg/mL (≈ 2.73 µM) | 1.56 µg/mL (≈ 1.36 µM) | MIC (Bacillus anthracis): 0.78 µg/mL (≈ 0.68 µM); MIC [13]: 6.25 µg/mL (≈ 5.45 µM); MIC (Escherichia coli NIHJ): 100 µg/mL (≈ 87.2 µM); MIC [14]: 12.5 µg/mL (≈ 10.9 µM); MIC [15]: 6.25 µg/mL (≈ 5.45 µM); Toxicity [16]: did not exhibit any toxicity; MIC [17]: 3.13 µg/mL (≈ 2.73 µM); MIC [18]: 3.13 µg/mL (≈ 2.73 µM); MIC [19]: 6.25 µg/mL (≈ 5.45 µM); MIC [20]: 3.13 µg/mL (≈ 2.73 µM); MIC [21]: 3.13 µg/mL (≈ 2.73 µM); MIC [22]: 1.56 µg/mL (≈ 1.36 µM); MIC [23]: 3.13 µg/mL (≈ 2.73 µM); MIC [24]: 3.13 µg/mL (≈ 2.73 µM); MIC [25]: 3.13 µg/mL (≈ 2.73 µM); MIC (Micrococcus luteus FDA16): 3.13 µg/mL (≈ 2.73 µM)
